Data on nine molecules can be found in patent US20070093460A1, “Methods of using selective 11beta-HSD inhibitors to treat gluocorticoid associated states” (priority 2005, published 2007).

The target in one experiment is T1, 11β-HSD2 (Ovis aries, UniProt P50168).
T1 construct: incubating sheep kidney microsomal fraction (6.5 μg protein) with 50 nM corticosterone; from tissue; host or cells: sheep kidney microsomal fraction
T1 sequence (P50168 1-427): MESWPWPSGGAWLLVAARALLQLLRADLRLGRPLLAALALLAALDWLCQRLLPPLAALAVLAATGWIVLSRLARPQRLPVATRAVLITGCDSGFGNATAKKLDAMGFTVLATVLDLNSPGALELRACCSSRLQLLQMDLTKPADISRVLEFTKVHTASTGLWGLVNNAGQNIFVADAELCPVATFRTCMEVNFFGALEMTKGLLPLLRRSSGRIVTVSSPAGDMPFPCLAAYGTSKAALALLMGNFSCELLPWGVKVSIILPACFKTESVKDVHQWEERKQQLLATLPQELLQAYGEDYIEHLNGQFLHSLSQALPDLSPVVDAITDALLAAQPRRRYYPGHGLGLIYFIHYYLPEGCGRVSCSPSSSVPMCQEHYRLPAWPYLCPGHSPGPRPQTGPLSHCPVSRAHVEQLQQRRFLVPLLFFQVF
In words: 11β-HSD2 enzyme activity in sheep kidney microsomes. It is filed as biochemical. An excerpt:
The enzymatic reaction was termninated by addition of methanol and synthesis of 11-dehydro-corticosterone was quantitated by HPLC as described above.

Experiment [1] concerns the target T2, 11β-HSD1 Reductase (Rattus norvegicus, UniProt P16232). In words: 11β-HSD1 reductase assay in rat Leydig cell homogenates.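 For all read-outs here: rat Leydig cell homogenate incubated 20 min at 37 °C, pH 7.4, with tritiated 11-dehydro-corticosterone and 3 mM NADPH, product measured by HPLC, inhibition from triplicate dose–response curves.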 The settings on record: for inhibitors of 11β-HSD1 reductase (summary in words): summary of the screening.
Procedure: Each enzyme reaction (described below) was stopped by adding 750 μL MeOH. After centrifugation, an aliquot of supernatant was analyzed by HPLC using a DuPont Zorbax C8 column.
11β-HSD1 dehydrogenase was assayed by incubating homogenates (13,000 cells equivalent) with 600 nM [^3H]-B (0.5 μCi) in the presence of 3 mM NADP, 50 mM Tris-HCl; pH 8.4 at 37° C. for 10 minutes in a total volume of 250 μL. 11β-HSD1 reductase was assayed by incubating homogenates (52,000 cells equivalent) with 600 nM [^3H]-11-dehydro-corticosterone in presence of 3 mM NADPH, 50 mM Tris-HCl; pH 7.4 at 37° C. for 20 minutes in a total volume of 250 μL.
Each concentration was tested in triplicate and the dose response curve, showing percentage inhibition versus log concentration of steroid was plotted. The data fitted a log-linear straight line.
In experiment [2] the target is T3, 11β-HSD1 Dehydrogenase (Rattus norvegicus, UniProt P16232). In words: 11β-HSD1 dehydrogenase assay in rat Leydig cell homogenates.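 For all read-outs here: tritiated corticosterone conversion by 11β-HSD1 dehydrogenase in Leydig homogenates with 3 mM NADP at pH 8.4, 37 °C for 10 min, products resolved by HPLC, inhibition relative to uninhibited enzyme.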 It is filed as biochemical. Set-up: Freshly prepared rat Leydig cell homogenates were chosen since they provide a rich and reliable source of both 11β-HSD1 dehydrogenase and reductase; from tissue; host or cells: rat testicular Leydig cells, homogenate. The settings on record: for inhibitors of 11β-HSD1 dehydrogenase (summary in words): summary of the screening.

For experiment [3], the target named is T2, 11β-HSD1 Reductase. In words: Table 1: inhibition of 11β-HSD1 reductase. Format: biochemical. The settings on record: Table 1, inhibition in words.
The target in experiment [4] is T3, 11β-HSD1 Dehydrogenase. In words: Table 1: inhibition of 11β-HSD1 dehydrogenase. Conditions: Table 1, inhibition in words. Format: biochemical.
Where [5] appears, read: read-out: Leydig Cell 11β-HSD1 Reductase [S] = 600 nM, rat Leydig cell homogenates, 600 nM 11-dehydro-corticosterone, progesterone and androgen derivatives.
Setting [6] is: rat Leydig cell homogenates, 600 nM corticosterone, progesterone and androgen derivatives, read-out: Leydig Cell 11β-HSDl Dehydrogenase [S] = 600 nM.

“Also recorded” adds a separate entry of the source. Like-named read-outs stand apart in the source and are kept apart here. A value given as a limit tells only on which side of the number the result lay.

T2 sequence (P16232 whole entry): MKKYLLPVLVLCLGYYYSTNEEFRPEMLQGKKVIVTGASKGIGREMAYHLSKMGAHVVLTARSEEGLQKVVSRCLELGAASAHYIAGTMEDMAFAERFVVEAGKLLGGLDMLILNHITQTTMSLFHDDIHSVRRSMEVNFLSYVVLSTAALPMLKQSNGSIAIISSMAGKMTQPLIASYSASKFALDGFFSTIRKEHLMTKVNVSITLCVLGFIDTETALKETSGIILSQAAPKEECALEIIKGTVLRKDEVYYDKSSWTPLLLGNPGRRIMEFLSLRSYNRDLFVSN
T3 sequence (P16232 whole entry): as above

As for `C[C@]12CC[C@H](O)C[C@@H]1CC[C@H]1[C@@H]3CC[C@H](O)[C@@]3(C)CC(=O)[C@@H]12` [11 -Keto-3β,5α-TH-Testosterone], the IC50 is 8 µM on 11β-HSD2 (sheep kidney microsomes, corticosterone substrate, progesterone and androgen derivatives, read-out: Sheep kidney 11β-HSD2 [S] = 50 nM); 0.65 µM on 11β-HSD1 Reductase [1] (setting [5]); 50 µM at 11β-HSD1 Dehydrogenase [2] (setting [6]). For the same molecule, the “inhibitors of 11β-HSD1 reductase (summary in words)” value against 11β-HSD1 Reductase [1] (listed as 11-Keto-3β,5α-TH-Testosterone) is “potent inhibitors”; on 11β-HSD1 Reductase [1] (listed as 11-keto-3β,5α-TH-testosterone), “high potency”. Also, the “Leydig Cell 11β-HSDl Dehydrogenase [S] = 600 nM” value on 11β-HSD1 Dehydrogenase [2] (rat Leydig cell homogenates, 600 nM corticosterone, progesterone and androgen derivatives) is recorded as “weak inhibitor”.
On to `C[C@]12CC[C@@H](O)C[C@H]1CC[C@@H]1[C@H]2C(=O)C[C@]2(C)C(=O)CC[C@@H]12` [11 -Keto-androsterone, 5α-Androstan-3a-ol-11,1 7-dione], for which the IC50 is greater than 10 µM on 11β-HSD2, greater than 100 µM on 11β-HSD1 Reductase [1] and greater than 100 µM against 11β-HSD1 Dehydrogenase [2]. For the same molecule, the “11β-HSD1 Reductase” value at 11β-HSD1 Reductase [3] is given as “Selective Inhibitor”. Also, the “11β-HSD1 Dehydrogenase” value on 11β-HSD1 Dehydrogenase [4] is listed as “No Inhibition”.
For the molecule `C[C@]12CC[C@@H](O)C[C@H]1CC[C@@H]1[C@@H]2C(=O)C[C@]2(C)C(=O)CC[C@@H]12` [11 -Keto-etiocholanolone], the IC50 on 11β-HSD1 Reductase [1] (setting [5]) and at 11β-HSD1 Dehydrogenase [2] (setting [6]) was greater than 100 µM throughout.
In the case of `CC(=O)[C@H]1CC[C@@H]2[C@@H]3CCC4=CC(=O)CC[C@]4(C)[C@@H]3[C@@H](O)C[C@]12C` [11β-OH-Progesterone, 4-Pregnen-11β-ol-3,20-dione], the “11β-HSD1 Reductase” value at 11β-HSD1 Reductase [3] was “No Inhibition”. Moreover, the “11β-HSD1 Dehydrogenase” value at 11β-HSD1 Dehydrogenase [4] is recorded as “Potent Inhibitor (Non-Selective)”. The values for the IC50 against 11β-HSD1 Reductase [1] and on 11β-HSD1 Dehydrogenase [2] (setting [6]) were greater than 100 µM and 5.6 µM, respectively. Further, the “Leydig Cell 11β-HSD1 Reductase [S]= 600 nM” value at 11β-HSD1 Reductase [1] (rat Leydig cell homogenates, 600 nM 11-dehydro-corticosterone, progesterone and androgen derivatives) is “inactive”. Further, the “inhibitors of 11β-HSD1 dehydrogenase (summary in words)” value on 11β-HSD1 Dehydrogenase [2] was “potent inhibitors; also recorded: high potency”; against 11β-HSD1 Dehydrogenase [2] (listed as 11β-hydroxy-progesterone), “potently inhibit”.
As for `C[C@]12CC[C@@H](O)C[C@@H]1CC[C@@H]1[C@@H]2[C@@H](O)C[C@]2(C)[C@@H](O)CC[C@@H]12` [11β-OH-androstanediol, 5α-Androstan-3α,11β,17β-triol], the IC50 against 11β-HSD2 amounted to 4.5 µM; against 11β-HSD1 Reductase [1], 11.5 µM; against 11β-HSD1 Dehydrogenase [2], 5 µM. Besides, the “inhibitors of 11β-HSD1 dehydrogenase (summary in words)” value on 11β-HSD1 Dehydrogenase [2] is reported as “potent inhibitors; also recorded: high potency”.
Turning to `C[C@]12CC[C@@H](O)C[C@@H]1CC[C@@H]1[C@@H]2[C@@H](O)C[C@]2(C)C(=O)CC[C@@H]12` [11β-OH-androsterone, 5α-Androstan-3ct,11β-diol-17-one], the IC50 against 11β-HSD2 was greater than 10 µM; on 11β-HSD1 Reductase [1] it was greater than 100 µM; at 11β-HSD1 Dehydrogenase [2] it was greater than 100 µM.
On to `C[C@]12CC[C@@H](O)C[C@H]1CC[C@@H]1[C@@H]2[C@@H](O)C[C@]2(C)C(=O)CC[C@@H]12` [11β-OH-etiocholanolone], for which the IC50 at 11β-HSD1 Reductase [1] (setting [5]) and at 11β-HSD1 Dehydrogenase [2] (setting [6]) was greater than 100 µM in each case.
For `CC(=O)[C@H]1CC[C@H]2[C@@H]3CC[C@@H]4C[C@H](O)CC[C@]4(C)[C@H]3[C@@H](O)C[C@]12C` [11β-OH-pregnanolone, 5β-Pregnan-3α,11β-diol-20-one], the values for the IC50 on 11β-HSD2, on 11β-HSD1 Reductase [1] and against 11β-HSD1 Dehydrogenase [2] were greater than 10 µM, 80 µM and 30 µM, respectively. Further, the “Sheep kidney 11β-HSD2 [S] = 50 nM” value on 11β-HSD2 (sheep kidney microsomes, corticosterone substrate, progesterone and androgen derivatives) is “inactive”.
In the case of `C[C@]12CCC(=O)C=C1CC[C@@H]1[C@@H]2[C@@H](O)C[C@]2(C=O)[C@@H](C(=O)CO)CC[C@@H]12` [Aldosterone, 4-Pregnen-11,21-diol-3,20-dione-18-al, reference compound], on 11β-HSD2 (11β-HSD2, sheep kidney microsomes, 50 nM corticosterone, NAD+, aldosterone, cortisol, corticosterone series), the “Dehydrogenase [S] = 50 nM” value is “inactive”. Also, the IC50 is greater than 10 µM at 11β-HSD2 (11β-HSD2, sheep kidney microsomes, 50 nM corticosterone, NAD+, aldosterone, cortisol, corticosterone series, read-out: Dehydrogenase [S] = 50 nM); greater than 100 µM against 11β-HSD1 Reductase [1]; greater than 100 µM at 11β-HSD1 Dehydrogenase [2] (rat Leydig cell homogenates, 600 nM corticosterone, NADP, corticosteroid series, read-out: Leydig Cell 11β-HSD1 Dehydrogenase [S]= 600 nM). For the same molecule, the “Leydig Cell 11β-HSD1 Reductase [S]= 600 nM” value at 11β-HSD1 Reductase [1] (rat Leydig cell homogenates, 600 nM 11-dehydro-corticosterone, NADPH, corticosteroid series) was “inactive”. Also, on 11β-HSD1 Dehydrogenase [2] (rat Leydig cell homogenates, 600 nM corticosterone, NADP, corticosteroid series), the “Leydig Cell 11β-HSD1 Dehydrogenase [S]= 600 nM” value is “inactive”.
